According to US20060276465A1, “1,2-di(cyclic) substituted benzene compounds” (Eisai R&D Management Co., Ltd., priority 2003, published 2006):

How the values were obtained:
[1] = tested on: human peripheral blood neutrophils; experiment: Human peripheral blood neutrophil adhesion system (adhesion to immobilized HUVEC, PMA-stimulated); assay type: cell-based; details: 0.75 h, concentration inhibiting by 50% the PMA-stimulated increase in the number of adhered BCECF-AM labeled neutrophils on HUVEC immobilized plate, 45 minutes, 37° C.
Protocol: Evaluation of Compounds in Human Peripheral Blood Neutrophil Adhesion System
<Preparation of Human Peripheral Blood Neutrophils>
To a plastic centrifugation tube containing 100 units of heparin sodium (Shimizu Pharmaceutical) was added 25 ml of fresh blood sampled from a healthy human. After adding and mixing therewith 8 ml of physiological saline (Otsuka Pharmaceutical) containing 6% Dextran (Nacalai), the mixture was allowed to stand at room temperature for 45 minutes for sedimentation of the erythrocytes. The resultant supernatant was transferred to another plastic centrifugation tube and combined with an equivalent volume of phosphate-buffered saline (hereinafter abbreviated as PBS; Sigma), and then centrifuged at 1600 rpm for 7 minutes at room temperature. The obtained hematocyte fraction was suspended in 4 ml of PBS, and the suspension was superposed on 4 ml of Ficoll-Paque™ PLUS (Amersham Biosciences). The resultant bilayer liquid was centrifuged at 2000 rpm for 30 minutes at room temperature, after which the supernatant was removed and the precipitate was suspended in 10 ml of PBS and centrifuged at 1200 rpm for 7 minutes, and the supernatant was removed. The resulting precipitate was suspended in 0.5 ml of PBS again, and then 10 ml of distilled water (Otsuka Pharmaceutical) was added, 0.5 ml of an aqueous solution containing 3 M NaCl was immediately added to restore isotonicity, the mixture was centrifuged at 1200 rpm for 7 minutes, and the obtained precipitate was suspended in PBS containing 1 mg/ml bovine serum albumin (hereinafter abbreviated as BSA; Sigma) again and stored in ice until being used for the experiment.
<Fluorescent Labeling of Human Peripheral Blood Neutrophils>
The obtained neutrophils were suspended in PBS containing 1 mg/ml BSA at 2×10^7 cells/ml. BCECF-AM (Dojin) was added to a final concentration of 5 μM, and the mixture was incubated at 37° C. for 45 minutes. It was then rinsed twice with PBS containing 1 mg/ml BSA by centrifugation, suspended again in PBS containing 1 mg/ml BSA at 5×10^7 cells/ml, and stored in ice until use.
<Preparation of HUVEC Immobilized Plate>
Human umbilical vein endothelial cells (hereinafter abbreviated as HUVEC) were suspended in MCDB131 medium (Chlorella Industries) containing 10% fetal calf serum and 30 μg/ml endothelial cell growth supplement (Becton Dickinson Bioscience). The suspension was added at 7.5×10^3 cells/well to a 96-well plate (Iwaki) immobilized with type I collagen, and cultured for 3 days in a CO2 incubator (Hirasawa). Upon confirming confluency of the cells, the supernatant was discarded, the plate was rinsed twice with PBS, and then PBS containing 0.1% glutaraldehyde (Kanto Kagaku) was added at 100 μl/well and the HUVECs were immobilized for 5 minutes. The supernatant was discarded and the plate was washed twice with PBS, and then PBS was added at 100 μl/well and the mixture was stored at 4° C. until use.
To 6.5 ml of RPMI-1640 medium (Sigma) containing 1 mg/ml of BSA were added 0.5 ml of a suspension of BCECF-AM labeled neutrophils at 5×10^7/ml stored in ice, which was mixed, and the mixture was added at 80 μl/well to a HUVEC immobilized plate. To this plate were immediately added 10 μl/well of a solution of the compound diluted at different concentrations with RPMI-1640 containing 1 mg/ml BSA, and 10 μl/well of 100 nM phorbol myristate acetate (hereinafter abbreviated as PMA; Sigma) in RPMI-1640 containing 1 mg/ml BSA, and the mixture was incubated in a CO2 incubator at 37° C. for 45 minutes. The supernatant was removed from the plate, which was then washed several times with RPMI-1640 at 100 μl/well, and then PBS containing 0.1% NP-40 (Calbiochem) was added thereto at 100 μl/well and the fluorescent intensity was measured with and ARVO™SX 1420 multi label counter (Wallac) to determine the number of adhered cells. […]

[2] = tested on: Jurkat cells; experiment: Jurkat cell adhesion system (adhesion to immobilized human fibronectin, PMA-stimulated); assay type: cell-based; details: concentration inhibiting by 50% the PMA-stimulated increase in the number of adhered Jurkat cells on human fibronectin; 45-60 minutes, 37° C.
Protocol: Evaluation of Compounds in Jurkat Cell Adhesion System
<Immobilization of Human Fibronectin in 96-Well Plate>
Human fibronectin (Becton Dickinson Biosciences) was diluted with phosphate-buffered saline (hereinafter abbreviated as PBS; Sigma) to 0.1-0.01 μg/ml, and the diluted solution was added to a 96-well plate (Becton Dickinson) at 50 μl/well, and allowed to stand overnight at 4° C. On the following day, the supernatant was removed from the plate, and then PBS containing 1% bovine serum albumin (hereinafter abbreviated as BSA; Sigma) was added thereto at 100 μl/well and incubation was performed at 37° C. for 2 hours in a CO2 incubator (Hirasawa).
The supernatant was removed from each plate and Jurkat cells suspended in RPMI-1640 (Sigma) containing 1 mg/ml BSA were added at 80 μl/well for 2.5×10^5 cells/well. The compound diluted to different concentrations with RPMI-1640 containing 1 mg/ml BSA was immediately added at 10 μl/well, and then 100 nM phorbol myristate acetate (hereinafter abbreviated as PMA; Sigma) in RPMI-1640 containing 1 mg/ml BSA was added at 10 μl/well and the plate was incubated in a CO2 incubator at 37° C. for 45-60 minutes. The supernatant was removed from the plate and each well was washed several times with 100 μl/well of RPMI-1640, after which 50 mM citrate buffer (pH 5.0) containing 3.75 mM p-nitrophenol-N-acetyl-β-D-glucosaminide (Sigma) and 0.25% Triton X-100 (Sigma) were added at 60 μl/well, and the mixture was placed in a CO2 incubator and incubated at 37° C. for 45 minutes. After incubation, 50 mM glycine buffer (pH 10.4) containing 5 mM EDTA was added at 90 μl/well, and the absorbance at 405 nm was measured with an EL340 Automated Microplate Reader (BIO-TEK) to determine the adhered cell count. The concentration of each compound which inhibited the increase in the number of adhered cells by the PMA-stimulation by 50% was recorded as the IC50 (μM).

[3] = tested on: Balb/c mice; experiment: DSS-induced colitis model; assay type: in vivo; details: male Balb/c mice; 1-3% DSS for 5-7 days; 30 mg/kg orally once a day for 5-7 successive days
Description: Evaluation of Compounds in DSS-Induced Colitis Model
A 1-3% solution of dextran sulfate sodium (hereinafter abbreviated as DSS; ICN) in purified water (Otsuka Pharmaceutical) was fed freely to 6- to 7-week-old male Balb/c mice (Charles River Japan) for 5-7 days to induce colitis. Disease Activity Index (hereinafter abbreviated as DAI) scored based on fecal hardness, blood content in feces and body weight change, the number of neutrophils infiltrating the colon and the length of the colon were used as indexes to evaluate compounds. Each compound was suspended or dissolved in an aqueous solution containing 0.5% methyl cellulose (Wako), and orally administered at 30 mg/kg once a day, for 5-7 successive days.

- IC50 [1]: 7 µM
- IC50 [2]: 3.6 µM
Structure (SMILES): CCCCN1CCN(c2ccc(N3CCC(OC)CC3)cc2C2CC(C)(C)CC(C)(C)C2)CC1.Cl [Example 32, 1-Butyl-4-[4-(4-methoxypiperidin-1-yl)-2-(3,3,5,5-tetramethylcyclohexyl)phenyl]piperazine hydrochloride]
- improvement in comparison with the DSS control group (DAI, number of neutrophils infiltrating the colon, length of the colon) [3]: particularly good improvement
